Measured values as given in patent US20190175534A1, “PHARMACEUTICAL COMPOSITIONS COMPRISING DGLA AND USE OF SAME” (DS Biopharma Limited, priority 2016, published 2019).

Assay: Phase 1 food effect on single-dose plasma pharmacokinetics (1000 mg, fasted vs fed)
Type: in vivo, human
Procedure: The effect of food on the PK of an orally administered single dose of DS107G capsule in healthy subjects; and
Subjects were randomly assigned in a 3:1 ratio of DG107G to placebo by block randomization. Single dose part one of the study comprised three cohorts of eight subjects each, with the addition of Cohort four based on evaluation of the safety data of Cohort three by the Safety Monitoring Committee (SMC). A single oral dose of DS107G or matching placebo was administered to fasted subjects in Cohorts one to three (500, 1000, and 2000 mg, respectively) in parallel; subjects in Cohort four were administered a dose of 4000 mg following completion of Cohort three. Subjects in Cohort two received 1000 mg or matching placebo in the fed state at ≥14 days after the first dose.
Food effect was evaluated in Cohort two at least 14 days after the first dose at which time a second single dose was administered, Subjects were administered a 1000-mg dose of study drug with 240 mL of water after a 10-hour fasting period and 30 minutes after starting consumption of a meal. Subjects then refrained from food intake for at least 4 hours after dosing, Food consumption was standardized for at least 12 hours after dosing using a standardized high-fat meal (800 to 1000 kcal with 500 to 600 kcal from fat and 250 kcal from carbohydrates). A typical standard test meal consisted of two eggs fried in butter, two strips of bacon, two slices of toast with butter, 120 mL of hash brown potatoes, and 240 mL of whole milk.
Subjects in Cohort two undergoing evaluation of the food effect on oral 1000 mg DGLA capsules were restricted from food consumption for at least 4 hours after dosing. Food consumption was standardized for at least 12 hours post dose using a standardized high-fat meal.

SMILES: CCCCC/C=C\C/C=C\C/C=C\CCCCCCC(=O)O [DGLA, Dihomo gamma linolenic acid]
- Free DGLA Cmax occurred sooner under fasted than fed conditions (median) (single 1000 mg dose): 1 h
- Mean baseline-corrected free DGLA Cmax, fasted over fed (single 1000 mg dose): about 3 fold
- Mean baseline-corrected total DGLA AUC0-24, fasted over fed (single 1000 mg dose): about 1,8 fold
- Mean baseline-corrected total DGLA Cmax, fasted over fed (single 1000 mg dose): about 1.5 fold
- Mean free DGLA baseline-corrected AUC0-24, fasted over fed (single 1000 mg dose): about 2 fold
- Mean baseline-corrected AUC0-24, total DGLA over free DGLA (single 1000 mg dose, fasted): ~54 fold
- Mean baseline-corrected Cmax, total DGLA over free DGLA (single 1000 mg dose, fasted): ~10 fold
- Mean baseline-corrected AUC0-24, total DGLA over free DGLA (single 1000 mg dose, fed): ~56 fold
- Mean baseline-corrected Cmax, total DGLA over free DGLA (single 1000 mg dose, fed): ~20 fold
- Rate and extent of total DGLA absorption (mean Cmax and AUC0-24), fasted higher than fed (single 1000-mg dose): approximately 50%
